What was measured:
Type in all cases: cell-based, human
USF-MC1 cells [1] = assay: Beta-hexosaminidase (histamine) release from USF-MC1 mast cells
Procedure: (§1) FIGS. 3A-D show graphs of histamine (beta hexosaminidase) release from USF-MC1 cells compared to LAD2 cells after one hour (FIGS. 3A and 3B, respectively), and after six hours (FIGS. 3D and 3C, respectively). USF-MC1 cells (2×10^6 per well) were coated with biotinylated human myeloma IgE for 18 hours. Cells were then washed and challenged with streptavidin (100 ng/ml), ionomycin (5 μM), ANP (1 μM), ANP+KP2, ANP+Isatin. After 30 minutes, supernatants and cell lysates were developed with […] and optical density (OD) was read at 405 nm. Percent release is expressed as a ratio of supernatant over total (supernatant+lysate). […] In addition, ANP-induced histamine release is attenuated by an NPRA receptor antagonist (isatin).
In order to activate mast cells via the FceR1 receptor, cells were cultured for 18 hours with biotinylated human myeloma IgE (100 ng/ml)(Sigma). Cells were then challenged with streptavidin (100 ng/ml)(Sigma), ionomycin (5 μM), or atrial natriuretic peptide (ANP) (100 ng/ml). After 30 minutes, supernatants and cell pellets were harvested. Substrate solution (p-Nitrophenyl-N-acetyl-B-D-glucosaminide Calbiochem, 0.13% in sodium citric solution) was added to either the cell supernatants or pellets and incubated for 1.5 hr. 0.4M glycine solution was then added to stop the reaction. The optical density (OD) was read at 405 nm. Percent release was expressed as a ratio of supernatant over total (supernatant+lysate). Percent release of beta-hexosadminidase by SV40 LT-transfected USF-MC1 cells and non-transfected USF-MC1 cells is shown in FIG. 5C.
USF-MC1 cells (2×10^6 per well) were coated with biotinylated human myeloma IgE for 18 hours. Cells were then washed and challenged with streptavidin (100 ng/ml), ionomycin (5 μM), ANP (1 μM), ANP+KP2, ANP+Isatin. After 30 minutes, supernatants and cell lysates were developed with […] and optical density (OD) was read at 405 nm. Percent release is expressed as a ratio of supernatant over total (supernatant+lysate). […]

LAD2 cells [2] = assay: Beta-hexosaminidase (histamine) release from LAD2 mast cells; details: ANP challenge plus isatin
Procedure: as §1
In order to activate mast cells via the FceR1 receptor, cells were cultured for 18 hours with biotinylated human myeloma IgE (100 ng/ml)(Sigma). Cells were then challenged with streptavidin (100 ng/ml)(Sigma), ionomycin (5 μM), or atrial natriuretic peptide (ANP) (100 ng/ml). After 30 minutes, supernatants and cell pellets were harvested. […] The optical density (OD) was read at 405 nm. Percent release was expressed as a ratio of supernatant over total (supernatant+lysate). […]

USF-MC1 cells [3] = assay: Leukotriene C4 release (ELISA) from USF-MC1 mast cells; details: ANP challenge plus isatin
Procedure: (§2) TNF-a (R&G Systems), IL-17 (eBioscience), and Leukotrine C4 (Cayman Chemical) protein concentrations in mast cell supernatants were determined using ELISA kits from each respective manufacturer. Each ELISA was performed according to the manufacturer's instructions.

LAD2 cells [4] = assay: Leukotriene C4 release (ELISA) from LAD2 mast cells; details: ANP challenge plus isatin
Procedure: as §2

C[C@H](CCC(=O)O)C[C@H](C)C[C@H](C)C(=O)/C=C(\O)[C@H](C)C[C@H](C)C/C=C/[C@@H](C)[C@@H](O)[C@@H](C)[C@@H](O)C[C@@H]1CC[C@@](C)([C@H]2CC[C@@](C)([C@@H](C)O)O2)O1 [ionomycin]
histamine (beta hexosaminidase) release after challenge (USF-MC1 cells [1]; ionomycin 5 μM or ANP 1 μM, 30 minutes): releases histamine within minutes

O=C1Nc2ccccc2C1=O [isatin]
effect on ANP-induced release of B-Hex (LAD2 cells [2]): reduced to baseline
effect on ANP-induced release of LTC4 (USF-MC1 cells [3]): reduced to baseline
effect on ANP-induced release of LTC4 (LAD2 cells [4]): reduced to baseline
effect on ANP-induced histamine release (USF-MC1 cells [1]; ANP 1 μM + isatin, 30 minutes): attenuated
effect on ANP-induced release of B-Hex (USF-MC1 cells [1]; ANP challenge plus isatin): reduced to baseline
